Reference: ChEMBL document CHEMBL3045319, “Synthesis, antitumor activity, and structureactivity relationship of some 4H-pyrano[3,2-h]quinoline and 7H-pyrimido[4,5:6,5]pyrano[3,2-h]quinoline derivatives” (Med Chem Res, 2013)
Values after ≈ are worked out from the molar mass of the structure shown.

How the values were obtained:
HepG2 [1] = assay: Cytotoxicity against Homo sapiens (human) HepG2 cells after 48 hr by MTT assay; type: functional, cell-based; settings: Homo sapiens, HepG2, 48 h; read-out: IC50
HepG2 [2] = assay: Cytotoxicity against Homo sapiens (human) HepG2 cells assessed as cell viability at 1.56 ug/ml after 48 hr by MTT assay relative to control; type: functional; settings: HepG2, 48 h, read-out: Activity
HepG2 [3] = assay: Cytotoxicity against Homo sapiens (human) HepG2 cells assessed as cell viability at 3.125 ug/ml after 48 hr by MTT assay relative to control; type: functional; settings: HepG2, 48 h, read-out: Activity
HepG2 [4] = assay: Cytotoxicity against Homo sapiens (human) HepG2 cells assessed as cell viability at 6.25 ug/ml after 48 hr by MTT assay relative to control; type: functional; settings: HepG2, 48 h, read-out: Activity
HepG2 [5] = assay: Cytotoxicity against Homo sapiens (human) HepG2 cells assessed as cell viability at 12.5 ug/ml after 48 hr by MTT assay relative to control; type: functional; settings: HepG2, 48 h, read-out: Activity
HepG2 [6] = assay: Cytotoxicity against Homo sapiens (human) HepG2 cells assessed as cell viability at 25 ug/ml after 48 hr by MTT assay relative to control; type: functional; settings: HepG2, 48 h, read-out: Activity
HepG2 [7] = assay: Cytotoxicity against Homo sapiens (human) HepG2 cells assessed as cell viability at 50 ug/ml after 48 hr by MTT assay relative to control; type: functional; settings: HepG2, 48 h, read-out: Activity
[8] = Cytotoxicity against Homo sapiens (human) HCT cells after 48 hr by MTT assay; type: functional, cell-based
[9] = Cytotoxicity against Homo sapiens (human) HCT cells assessed as cell viability at 1.56 ug/ml after 48 hr by MTT assay relative to control; type: functional; settings: read-out: Activity
[10] = Cytotoxicity against Homo sapiens (human) HCT cells assessed as cell viability at 6.25 ug/ml after 48 hr by MTT assay relative to control; type: functional; settings: read-out: Activity
MCF7 [11] = assay: Cytotoxicity against Homo sapiens (human) MCF7 cells assessed as cell viability at 1.56 ug/ml after 48 hr by MTT assay relative to control; type: functional; settings: MCF7, 48 h, read-out: Activity
MCF7 [12] = assay: Cytotoxicity against Homo sapiens (human) MCF7 cells assessed as cell viability at 3.125 ug/ml after 48 hr by MTT assay relative to control; type: functional; settings: MCF7, 48 h, read-out: Activity
MCF7 [13] = assay: Cytotoxicity against Homo sapiens (human) MCF7 cells assessed as cell viability at 12.5 ug/ml after 48 hr by MTT assay relative to control; type: functional; settings: MCF7, 48 h, read-out: Activity
MCF7 [14] = assay: Cytotoxicity against Homo sapiens (human) MCF7 cells assessed as cell viability at 6.25 ug/ml after 48 hr by MTT assay relative to control; type: functional; settings: MCF7, 48 h, read-out: Activity
MCF7 [15] = assay: Cytotoxicity against Homo sapiens (human) MCF7 cells assessed as cell viability at 50 ug/ml after 48 hr by MTT assay relative to control; type: functional; settings: MCF7, 48 h, read-out: Activity
MCF7 [16] = assay: Cytotoxicity against Homo sapiens (human) MCF7 cells assessed as cell viability at 25 ug/ml after 48 hr by MTT assay relative to control; type: functional; settings: MCF7, 48 h, read-out: Activity
[17] = Cytotoxicity against Homo sapiens (human) HCT cells assessed as cell viability at 3.125 ug/ml after 48 hr by MTT assay relative to control; type: functional; settings: read-out: Activity
[18] = Cytotoxicity against Homo sapiens (human) HCT cells assessed as cell viability at 12.5 ug/ml after 48 hr by MTT assay relative to control; type: functional; settings: read-out: Activity
[19] = Cytotoxicity against Homo sapiens (human) HCT cells assessed as cell viability at 25 ug/ml after 48 hr by MTT assay relative to control; type: functional; settings: read-out: Activity
[20] = Cytotoxicity against Homo sapiens (human) HCT cells assessed as cell viability at 50 ug/ml after 48 hr by MTT assay relative to control; type: functional; settings: read-out: Activity
MCF7 [21] = assay: Cytotoxicity against Homo sapiens (human) MCF7 cells after 48 hr by MTT assay; type: functional, cell-based; settings: MCF7, 48 h

Row | SMILES | IC50 (HepG2 [1]) [µg/mL] | viability at 1.56 µg/mL (HepG2 [2]) [%] | viability at 3.125 µg/mL (HepG2 [3]) [%] | viability at 6.25 µg/mL (HepG2 [4]) [%] | viability at 12.5 µg/mL (HepG2 [5]) [%] | viability at 25 µg/mL (HepG2 [6]) [%] | viability at 50 µg/mL (HepG2 [7]) [%] | IC50 [8] [µg/mL] | viability at 1.56 µg/mL [9] [%] | viability at 6.25 µg/mL [10] [%] | viability at 1.56 µg/mL (MCF7 [11]) [%] | viability at 3.125 µg/mL (MCF7 [12]) [%] | viability at 12.5 µg/mL (MCF7 [13]) [%] | viability at 6.25 µg/mL (MCF7 [14]) [%] | viability at 50 µg/mL (MCF7 [15]) [%] | viability at 25 µg/mL (MCF7 [16]) [%] | viability at 3.125 µg/mL [17] [%] | viability at 12.5 µg/mL [18] [%] | viability at 25 µg/mL [19] [%] | viability at 50 µg/mL [20] [%] | also measured
1 | N#CC1=C(/N=C/NN)Oc2c(ccc3cccnc23)C1c1ccc(Cl)cc1 (centres undefined) | 8.7 (≈ 23.1 µM) | 88.2 | 78.4 | 60.9 | 36 | 29.1 | 24.9 | 7.4 (≈ 19.7 µM) | 81.4 | 55.6 | 78.8 | 67 | 45 | 55 | 21.4 | 35.2 | 65.2 | 36 | 29.2 | 24.8 | IC50 (MCF7 [21]): 8.4 µg/mL (≈ 22.4 µM)
2 | CN/C=N/C1=C(C#N)C(c2ccc(Cl)cc2)c2ccc3cccnc3c2O1 (centres undefined) | 1.9 (≈ 5.07 µM) | 52.8 | 45.7 | 39 | 30.4 | 17.9 | 9.28 | 2.3 (≈ 6.14 µM) | 58.2 | 29.4 | 76.8 | 65 | 29.2 | 50.1 | 16.8 | 21.4 | 41.4 | 22.2 | 13.6 | 11.1 | IC50 (MCF7 [21]): 6.3 µg/mL (≈ 16.8 µM)
3 | N#CC1=C(/N=C/N)Oc2c(ccc3cccnc23)C1c1ccc(Cl)cc1 (centres undefined) | 23.6 (≈ 65.4 µM) | 96.6 | 87.4 | 76.7 | 63.9 | 43.4 | 35.8 | 6.8 (≈ 18.8 µM) | 94.9 | 52.4 | 91.3 | 79.7 | 43.6 | 67.4 | 23.1 | 37.5 | 80.2 | 26.3 | 21.8 | 18.7 | IC50 (MCF7 [21]): 10.5 µg/mL (≈ 29.1 µM)
4 | Cc1ccc2ccc3c(c2n1)OC(/N=C/N)=C(C#N)C3c1ccc(Cl)cc1 (centres undefined) | 32.9 (≈ 87.8 µM) | 80.5 | 76.7 | 68 | 57.7 | 53.8 | 41.2 | 21.7 (≈ 57.9 µM) | 91.6 | 70.7 | 98.4 | 96.5 | 81.5 | 89.3 | 63.6 | 74.2 | 82.2 | 65.2 | 44.2 | 35.9 | IC50 (MCF7 [21]): > 50 µg/mL
5 | Cc1ccc2ccc3c(c2n1)OC(/N=C/N)=C(C#N)C3c1ccc(Br)cc1 (centres undefined) | > 50 | 98.8 | 89.3 | 81.2 | 65.5 | 60.7 | 52.3 | 6.2 (≈ 14.8 µM) | 86.9 | 49.8 | 100 | 97.3 | 81.2 | 89.8 | 56.2 | 69.6 | 65 | 42.9 | 34.1 | 24.8 | IC50 (MCF7 [21]): > 50 µg/mL
6 | CCO/C=N/C1=C(C#N)C(c2ccc(Cl)cc2)c2ccc3cccnc3c2O1 (centres undefined) | 31.1 (≈ 79.8 µM) | 97.6 | 91 | 86.6 | 72.3 | 57.1 | 39.4 | 25.7 (≈ 65.9 µM) | 93.4 | 73.3 | 98.3 | 93 | 74.2 | 81.4 | 43 | 67.1 | 81.7 | 67.1 | 51.4 | 23.9 | IC50 (MCF7 [21]): 45.4 µg/mL (≈ 116 µM)
7 | CCO/C=N/C1=C(C#N)C(c2ccc(Cl)cc2)c2ccc3ccc(C)nc3c2O1 (centres undefined) | 44.5 (≈ 110 µM) | 100 | 96.4 | 85.1 | 79.4 | 69 | 45.2 | 3.6 (≈ 8.91 µM) | 75.5 | 35.3 | 96.1 | 87.4 | 63.4 | 76.6 | 37.5 | 48.6 | 54.9 | 26 | 18.4 | 15.2 | IC50 (MCF7 [21]): 23.8 µg/mL (≈ 58.9 µM)
8 | CCO/C=N/C1=C(C#N)C(c2ccc(Br)cc2)c2ccc3ccc(C)nc3c2O1 (centres undefined) | 37.1 (≈ 82.8 µM) | 100 | 94.6 | 83.3 | 76.4 | 62.9 | 34.6 | 5.8 (≈ 12.9 µM) | 81.9 | 46.5 | 98.1 | 95.4 | 79.2 | 87.6 | 56.6 | 67.4 | 62.9 | 34 | 23.3 | 19.8 | IC50 (MCF7 [21]): > 50 µg/mL
9 | CN(C)/C=N/C1=C(C#N)C(c2ccc(Cl)cc2)c2ccc3cccnc3c2O1 (centres undefined) | 47.9 (≈ 123 µM) | 100 | 98.3 | 93 | 85.6 | 77.8 | 48.1 | 49.4 (≈ 127 µM) | 100 | 88.1 | 98.7 | 92 | 75.6 | 83.5 | 37.7 | 58 | 98.5 | 77.7 | 71.3 | 49.5 | IC50 (MCF7 [21]): 29.3 µg/mL (≈ 75.3 µM)
10 | Cc1ccc2ccc3c(c2n1)OC(/N=C/N(C)C)=C(C#N)C3c1ccc(Cl)cc1 (centres undefined) | > 50 | 100 | 100 | 97.8 | 94.7 | 81.5 | 68.2 | 28.2 (≈ 70 µM) | 82 | 74.2 | 97 | 87.2 | 68.2 | 76.9 | 35 | 49.6 | 78.7 | 69.7 | 53.5 | 30.5 | IC50 (MCF7 [21]): 24.4 µg/mL (≈ 60.6 µM)
11 | CC[C@]1(O)C[C@@H]2CN(CCc3c([nH]c4ccccc34)[C@@](C(=O)OC)(c3cc4c(cc3OC)N(C)[C@H]3[C@@](O)(C(=O)OC)[C@H](OC(C)=O)[C@]5(CC)C=CCN6CC[C@]43[C@@H]65)C2)C1 [VINBLASTINE] |  | 72.1 | 55 | 45.1 | 24.2 | 16.1 | 14.4 | 2.6 (≈ 3.21 µM) | 53.4 | 38.1 | 76.2 | 60.4 | 29.6 | 48.8 | 7.82 | 15.2 | 47.5 | 28.2 | 21.7 | 16.3 | 
